Measured values from article PMC4220016, “The binding characteristics and orientation of a novel radioligand with distinct properties at 5-HT3A and 5-HT3AB receptors” (Neuropharmacology, 2014).
Like-named read-outs stand apart in the source and are kept apart here.

Assays:
[1] = target: T1, 5-HT3AB receptors (Homo sapiens, UniProt O95264+P46098); assay: Competition binding with [^3H]VUF10166 at 5-HT3AB receptors
T1 sequence (P46098 24-478): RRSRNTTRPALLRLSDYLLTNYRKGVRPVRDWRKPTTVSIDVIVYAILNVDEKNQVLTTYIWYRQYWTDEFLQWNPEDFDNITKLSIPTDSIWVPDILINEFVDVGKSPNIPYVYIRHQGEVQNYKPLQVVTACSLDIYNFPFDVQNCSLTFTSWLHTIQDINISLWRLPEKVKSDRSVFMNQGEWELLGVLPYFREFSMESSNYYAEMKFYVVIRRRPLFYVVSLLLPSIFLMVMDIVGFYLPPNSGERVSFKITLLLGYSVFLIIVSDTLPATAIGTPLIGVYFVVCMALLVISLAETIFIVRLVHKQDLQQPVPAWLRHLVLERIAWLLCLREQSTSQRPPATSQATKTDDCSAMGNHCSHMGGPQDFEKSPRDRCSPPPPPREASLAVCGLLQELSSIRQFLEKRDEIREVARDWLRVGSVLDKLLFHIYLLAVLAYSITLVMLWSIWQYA
T1 sequence (O95264 22-441): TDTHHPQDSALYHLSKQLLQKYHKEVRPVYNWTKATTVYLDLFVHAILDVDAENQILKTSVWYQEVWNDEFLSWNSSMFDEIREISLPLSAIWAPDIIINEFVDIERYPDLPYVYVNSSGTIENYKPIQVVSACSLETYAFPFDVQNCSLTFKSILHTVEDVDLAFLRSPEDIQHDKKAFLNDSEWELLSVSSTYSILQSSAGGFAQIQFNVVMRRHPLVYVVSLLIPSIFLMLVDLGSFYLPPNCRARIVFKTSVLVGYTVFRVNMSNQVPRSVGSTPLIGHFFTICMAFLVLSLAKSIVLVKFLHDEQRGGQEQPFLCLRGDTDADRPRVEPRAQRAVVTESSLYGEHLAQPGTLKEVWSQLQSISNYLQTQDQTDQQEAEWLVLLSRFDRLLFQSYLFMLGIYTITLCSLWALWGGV

[2] = target: T2, 5-HT3A receptors (Homo sapiens, UniProt P46098); assay: Competition binding with [^3H]VUF10166 at 5-HT3A receptors
T2 sequence (P46098 24-478): T1 sequence (P46098 24-478)

[3] = target: T2, 5-HT3A receptors; assay: biochemical
[4] = target: T2, 5-HT3A receptors
[5] = target: T1, 5-HT3AB receptors; assay: biochemical
[6] = target: T2, 5-HT3A receptors; assay: biochemical; assay type: binding; parameters: expressed in transfected cells; host or cells: HEK 293; details: 5-HT3A
[7] = target: α7 nACh receptors (Homo sapiens, UniProt P36544); assay: Saturation binding of [^3H]VUF10166 on α7 nACh receptors; details: data not shown
[8] = target: T2, 5-HT3A receptors; assay: Kinetic measurements (association, dissociation) at 5-HT3A receptors; assay type: binding; parameters: expressed in transfected cells; host or cells: HEK 293
[9] = target: T1, 5-HT3AB receptors; assay: Kinetic measurements (association, dissociation) at 5-HT3AB receptors; assay type: binding; parameters: expressed in transfected cells; host or cells: HEK 293; details: for koff: from kobs plot
[10] = target: T3, 5-HT3A receptor I71C (Homo sapiens, UniProt P46098, I66C); assay: Saturation binding of [^3H]VUF10166 at 5-HT3A receptor mutant; details: I71C Kd versus wild type
T3 construct: expressed in transfected cells; host or cells: HEK 293
Description: (§1) Mutagenesis was performed using the QuikChange method (Agilent Technologies Inc., California, USA) on human 5-HT3A cDNA (accession number: P46098) cloned into pcDNA3.1 (Invitrogen, Paisley, UK). Cysteine residues were substituted for amino acids throughout each of the binding loops A–E (Fig. 1). To facilitate comparisons with previous work, we use the numbering of the equivalent residues in the mouse 5-HT3A subunit; for human numbering 5 should be subtracted from each residue number.
(§2) All data were analysed using GraphPad Prism 4.03.

[11] = target: T4, 5-HT3A receptor K112C (Homo sapiens, UniProt P46098, K107C); assay: as above; details: K112C Kd versus wild type
T4 construct: expressed in transfected cells; host or cells: HEK 293
Description: as §1, §2

[12] = target: T5, 5-HT3A receptor N232C (Homo sapiens, UniProt P46098, N227C); assay: as above; details: N232C Kd versus wild type
T5 construct: expressed in transfected cells; host or cells: HEK 293
Description: as §1, §2

[13] = target: T6, 5-HT3A receptor R145C (Homo sapiens, UniProt P46098, R140C); assay: as above; details: R145C Kd versus wild type
T6 construct: expressed in transfected cells; host or cells: HEK 293
Description: as §1, §2

[14] = target: T7, 5-HT3A receptor H185C (Homo sapiens, UniProt P46098, H180C); assay: as above; details: H185C Kd versus wild type
T7 construct: expressed in transfected cells; host or cells: HEK 293
Description: as §1, §2

[15] = target: T8, 5-HT3A receptor S114C (Homo sapiens, UniProt P46098, S109C); assay: as above; details: S114C Kd versus wild type
T8 construct: expressed in transfected cells; host or cells: HEK 293
Description: as §1, §2

[16] = target: T9, 5-HT3A receptor I139C (Homo sapiens, UniProt P46098, I134C); assay: as above; details: I139C Kd versus wild type
T9 construct: expressed in transfected cells; host or cells: HEK 293
Description: as §1, §2

[17] = target: T10, 5-HT3A receptor Q151C (Homo sapiens, UniProt P46098, Q146C); assay: as above; details: Q151C Kd versus wild type
T10 construct: expressed in transfected cells; host or cells: HEK 293
Description: as §1, §2

[18] = target: T11, 5-HT3A receptor N128C (Homo sapiens, UniProt P46098, N123C); assay: as above; details: N128C Kd versus wild type
T11 construct: expressed in transfected cells; host or cells: HEK 293
Description: as §1, §2

[19] = target: T12, 5-HT3A receptor R92C (Homo sapiens, UniProt P46098, R87C); assay: as above; details: R92C Kd versus wild type
T12 construct: expressed in transfected cells; host or cells: HEK 293
Description: as §1, §2

[20] = target: T13, 5-HT3A receptor Y153C (Homo sapiens, UniProt P46098, Y148C); assay: as above; details: Y153C Kd versus wild type
T13 construct: expressed in transfected cells; host or cells: HEK 293
Description: as §1
(§3) All data were analysed using GraphPad Prism 4.03. […].

[21] = target: T14, 5-HT3A receptor F226C (Homo sapiens, UniProt P46098, F221C); assay: as above; details: F226C Kd versus wild type
T14 construct: expressed in transfected cells; host or cells: HEK 293
Description: as §1, §3

[22] = target: T15, 5-HT3A receptor L126C (Homo sapiens, UniProt P46098, L121C); assay: as above; details: L126C Kd versus wild type
T15 construct: expressed in transfected cells; host or cells: HEK 293
Description: as §1, §3

[23] = test system: 5-HT3AB receptors; parameters: method as in Nakamura et al., 2013; details: ref Nakamura et al., 2013; cited from earlier work
[24] = test system: 5-HT3A receptors; parameters: method as in Nakamura et al., 2013; details: ref Nakamura et al., 2013; cited from earlier work

T8 sequence (P46098 24-478 S109C): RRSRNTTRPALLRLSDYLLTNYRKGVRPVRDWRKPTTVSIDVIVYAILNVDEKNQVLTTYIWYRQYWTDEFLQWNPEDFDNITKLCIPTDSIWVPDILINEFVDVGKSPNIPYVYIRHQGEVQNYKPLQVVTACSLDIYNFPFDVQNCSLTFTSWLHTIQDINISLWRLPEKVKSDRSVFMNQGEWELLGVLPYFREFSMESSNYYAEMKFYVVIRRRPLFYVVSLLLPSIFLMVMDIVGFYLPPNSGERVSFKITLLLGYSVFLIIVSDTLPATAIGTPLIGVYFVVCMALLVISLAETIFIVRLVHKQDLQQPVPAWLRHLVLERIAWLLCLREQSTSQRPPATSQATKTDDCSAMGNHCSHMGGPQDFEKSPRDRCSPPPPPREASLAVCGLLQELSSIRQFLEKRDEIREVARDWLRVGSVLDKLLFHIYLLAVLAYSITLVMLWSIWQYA
T7 sequence (P46098 24-478 H180C): as the sequence (P46098 24-478 S109C) above, with C86S, H157C counted along it
T14 sequence (P46098 24-478 F221C): as the sequence (P46098 24-478 S109C) above, with C86S, F198C counted along it
T6 sequence (P46098 24-478 R140C): as the sequence (P46098 24-478 S109C) above, with C86S, R117C counted along it
T5 sequence (P46098 24-478 N227C): as the sequence (P46098 24-478 S109C) above, with C86S, N204C counted along it
T9 sequence (P46098 24-478 I134C): as the sequence (P46098 24-478 S109C) above, with C86S, I111C counted along it
T15 sequence (P46098 24-478 L121C): as the sequence (P46098 24-478 S109C) above, with C86S, L98C counted along it
T3 sequence (P46098 24-478 I66C): as the sequence (P46098 24-478 S109C) above, with I43C, C86S counted along it
T12 sequence (P46098 24-478 R87C): as the sequence (P46098 24-478 S109C) above, with R64C, C86S counted along it
α7 nACh receptors, sequence (P36544 23-502): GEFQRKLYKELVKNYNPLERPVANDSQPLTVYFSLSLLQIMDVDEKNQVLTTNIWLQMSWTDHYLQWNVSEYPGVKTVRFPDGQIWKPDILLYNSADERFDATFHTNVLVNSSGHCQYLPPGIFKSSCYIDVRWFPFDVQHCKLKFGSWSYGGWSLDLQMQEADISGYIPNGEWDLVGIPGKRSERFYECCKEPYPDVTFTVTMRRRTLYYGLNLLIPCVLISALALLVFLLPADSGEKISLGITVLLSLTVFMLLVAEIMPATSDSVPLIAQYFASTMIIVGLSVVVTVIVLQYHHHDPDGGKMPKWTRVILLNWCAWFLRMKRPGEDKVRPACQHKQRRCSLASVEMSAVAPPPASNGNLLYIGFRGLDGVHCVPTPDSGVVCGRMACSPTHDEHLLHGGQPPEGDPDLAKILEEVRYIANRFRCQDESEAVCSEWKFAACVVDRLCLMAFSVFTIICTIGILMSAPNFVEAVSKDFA
T11 sequence (P46098 24-478 N123C): as the sequence (P46098 24-478 S109C) above, with C86S, N100C counted along it
T10 sequence (P46098 24-478 Q146C): as the sequence (P46098 24-478 S109C) above, with C86S, Q123C counted along it
T13 sequence (P46098 24-478 Y148C): as the sequence (P46098 24-478 S109C) above, with C86S, Y125C counted along it
T4 sequence (P46098 24-478 K107C): as the sequence (P46098 24-478 S109C) above, with K84C, C86S counted along it

CC(=O)OCC[N+](C)(C)C [ACh]
inhibition of specific [^3H]VUF10166 binding (in words) ([1]; 5-HT3AB): not
inhibition of specific [^3H]VUF10166 binding (in words) ([2]; 5-HT3A): not

CN1CCc2cc3c(cc2[C@H]1[C@@H]1OC(=O)c2c1ccc1c2OCO1)OCO3 [Bicuculline]
inhibition of specific [^3H]VUF10166 binding (in words) [1]: not
inhibition of specific [^3H]VUF10166 binding (in words) [2]: not

CC(C)(C)[C@]1(O)CC2OC(=O)CC23C(=O)OC2OC(=O)[C@H](O)C231 (stereo partly shown) [Bilobalide]
inhibition of specific [^3H]VUF10166 binding (in words) [1]: not
inhibition of specific [^3H]VUF10166 binding (in words) [2]: not and unaffected

COc1ccc(-c2ccc(=N)n(CCCC(=O)O)n2)cc1 [Gabazine]
inhibition of specific [^3H]VUF10166 binding (in words) ([1]; 5-HT3AB): not
inhibition of specific [^3H]VUF10166 binding (in words) ([2]; 5-HT3A): not

CC1C(=O)O[C@H]2[C@H](O)[C@@]34[C@H]5C[C@@H](C(C)(C)C)[C@@]36C(O)C(=O)O[C@H]6O[C@@]4(C(=O)O5)[C@@]12O (stereo partly shown) [Ginkgolide]
inhibition of specific [^3H]VUF10166 binding (in words) [1]: not
inhibition of specific [^3H]VUF10166 binding (in words) [2]: not and unaffected

NCC(=O)O [Glycine]
inhibition of specific [^3H]VUF10166 binding (in words) ([1]; 5-HT3AB): not
inhibition of specific [^3H]VUF10166 binding (in words) ([2]; 5-HT3A): not

CN1[C@@H]2CC[C@H]1C[C@@H](OC(=O)c1cc(Cl)cc(Cl)c1)C2 [MDL72222]
inhibition of specific [^3H]VUF10166 binding (in words) [1]: inhibited
inhibition of specific [^3H]VUF10166 binding (in words) [2]: inhibited

CN1CCC[C@H]1c1cccnc1 [Nicotine]
IC50 [3]: 977 nM
IC50 [1]: 174 nM
competition with [^3H]granisetron (in words) [4]: competed
IC50 [2]: 155 nM
IC50 [5]: 275 nM

c1ccc2nc(N3CCNCC3)ccc2c1 [Quipazine]
inhibition of specific [^3H]VUF10166 binding (in words) ([1]; 5-HT3AB): inhibited
inhibition of specific [^3H]VUF10166 binding (in words) ([2]; 5-HT3A): inhibited

O=C1C[C@@H]2OCC=C3CN4CC[C@]56c7ccccc7N1[C@H]5[C@H]2[C@H]3C[C@H]46 [Strychnine]
IC50 [3]: 50100 nM
IC50 [1]: 550 nM
competition with [^3H]granisetron (in words) [4]: competed
IC50 [2]: 1480 nM
IC50 [5]: 14100 nM

[3H]CN1CCN(c2nc3ccccc3nc2Cl)CC1 [[^3H]VUF10166, 2-chloro-3-(4-[^3H]methylpiperazin-1-yl)quinoxaline]
non-specific binding ([6]; non-specific binding determined with 2 mM quipazine): < 5%
Bmax ([6]; paired samples): 2229 ± 158 fmol/mg
specific saturable binding (in words) [7]: no specific saturable binding

[3H]CN1CCN(c2nc3ccccc3nc2Cl)CC1 [[^3H]VUF10166] [2-chloro-3-(4-[^3H]methylpiperazin-1-yl)quinoxaline]
kon determined directly from kobs values using Equ (5) [8]: 8.24e+07 M/min
koff from dissociation, single exponential ([8]; dissociation in 2 mM quipazine): 0.000183 ± 1.7e-05 s⁻¹
koff ([8]; intercept of plot of kobs versus radioligand concentration): 0.00017 s⁻¹
kon ([8]; slope of plot of kobs versus radioligand concentration): 1.04e+06 M⁻¹ s⁻¹
average kon determined from kobs (Equ (5)) ([9]; below 3 nM [^3H]VUF10166): 8.77e+07 M/min
koff from dissociation, double exponential, fast component ([9]; dissociation in 2 mM quipazine): 0.00378 ± 0.000933 s⁻¹
koff from dissociation, double exponential, slow component ([9]; dissociation in 2 mM quipazine): 0.000167 ± 5e-05 s⁻¹
koff ([9]; first component, [^3H]VUF10166 < 3 nM): 0.0004 s⁻¹
koff ([9]; second component, [^3H]VUF10166 > 3 nM): 0.0027 s⁻¹
Fold change [10]: 1.1
Fold change [11]: 1.6
Fold change [12]: 9.0
Fold change [13]: 4.6
Fold change [14]: 4.5
Fold change [15]: 1.0
Fold change [16]: 7.4
Fold change [17]: 8.7
Fold change [18]: 3.3
Fold change [19]: 4.2
Fold change [20]: 9.7
Fold change [21]: 7.6
Fold change [22]: 4.2

COc1cc2c3cc1Oc1cc(ccc1O)C[C@@H]1c4c(cc(OC)c(O)c4Oc4ccc(cc4)C[C@@H]3N(C)CC2)CC[N+]1(C)C [d-Tubocurarine]
IC50 [3]: 24500 nM
IC50 [1]: 3630 nM
inhibition of specific [^3H]VUF10166 binding (in words) [1]: inhibited
IC50 [2]: 3890 nM
inhibition of specific [^3H]VUF10166 binding (in words) [2]: inhibited
IC50 [5]: 51300 nM

CC[C@@]1(O)C(=O)OCc2c1cc1n(c2=O)Cc2cc3c(CN(C)C)c(O)ccc3nc2-1 [topotecan]
effect on 5-HT3AB receptors (in words) [23]: potentiate
effect on 5-HT3A receptors (in words) [24]: inhibit

Picrotoxin
inhibition of specific [^3H]VUF10166 binding (in words) [1]: not
inhibition of specific [^3H]VUF10166 binding (in words) [2]: not and unaffected
